Measured values as given in ChEMBL document CHEMBL1255217, “Bioisosteric replacement leading to biologically active [2.2]paracyclophanes with altered binding profiles for aminergic G-protein-coupled receptors” (J Med Chem, 2010).
Activity calls are given as the source filed them. No cut-off for these calls is given here.

Columns and labels:
[1] = Displacement of [3H]Prazosin from adrenergic alpha1 receptor in pig cerebral cortex homogenates; type: tissue-based, Sus scrofa
D(4) dopamine receptor = biological target: T1, D(4) dopamine receptor (Homo sapiens, UniProt P21917); assay: Displacement of [3H]Spiperone from human dopamine D4.4 receptor expressed in CHO cells; type: cell-based
T1 sequence (P21917 whole entry): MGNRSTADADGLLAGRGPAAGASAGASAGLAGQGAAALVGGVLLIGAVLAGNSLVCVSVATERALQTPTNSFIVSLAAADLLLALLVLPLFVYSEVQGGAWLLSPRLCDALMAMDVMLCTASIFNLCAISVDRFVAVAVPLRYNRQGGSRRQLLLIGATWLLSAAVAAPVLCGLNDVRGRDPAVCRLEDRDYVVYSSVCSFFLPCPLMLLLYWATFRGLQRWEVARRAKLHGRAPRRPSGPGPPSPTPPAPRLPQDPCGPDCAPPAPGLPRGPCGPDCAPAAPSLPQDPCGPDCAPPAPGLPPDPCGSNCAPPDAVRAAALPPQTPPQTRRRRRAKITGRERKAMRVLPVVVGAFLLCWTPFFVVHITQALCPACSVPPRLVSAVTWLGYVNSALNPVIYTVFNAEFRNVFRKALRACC

D(2) dopamine receptor [2] = biological target: T2, D(2) dopamine receptor (Homo sapiens, UniProt P14416); assay: Displacement of [3H]Spiperone from human dopamine D2 short receptor expressed in CHO cells; type: cell-based
T2 sequence (P14416 whole entry): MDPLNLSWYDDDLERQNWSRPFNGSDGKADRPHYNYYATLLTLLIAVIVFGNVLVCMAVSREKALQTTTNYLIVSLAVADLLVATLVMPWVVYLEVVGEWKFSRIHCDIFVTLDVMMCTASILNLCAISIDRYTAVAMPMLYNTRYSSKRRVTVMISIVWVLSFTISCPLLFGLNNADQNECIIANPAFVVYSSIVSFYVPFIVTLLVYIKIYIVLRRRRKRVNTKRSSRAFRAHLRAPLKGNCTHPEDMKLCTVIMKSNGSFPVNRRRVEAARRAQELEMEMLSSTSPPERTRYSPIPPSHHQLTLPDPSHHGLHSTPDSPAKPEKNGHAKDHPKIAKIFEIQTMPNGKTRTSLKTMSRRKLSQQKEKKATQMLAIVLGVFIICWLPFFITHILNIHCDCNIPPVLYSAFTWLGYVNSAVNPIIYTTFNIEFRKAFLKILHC

D(3) dopamine receptor [3] = biological target: T3, D(3) dopamine receptor (Homo sapiens, UniProt P35462); assay: Displacement of [3H]Spiperone from human dopamine D3 receptor expressed in CHO cells; type: cell-based
T3 sequence (P35462 whole entry): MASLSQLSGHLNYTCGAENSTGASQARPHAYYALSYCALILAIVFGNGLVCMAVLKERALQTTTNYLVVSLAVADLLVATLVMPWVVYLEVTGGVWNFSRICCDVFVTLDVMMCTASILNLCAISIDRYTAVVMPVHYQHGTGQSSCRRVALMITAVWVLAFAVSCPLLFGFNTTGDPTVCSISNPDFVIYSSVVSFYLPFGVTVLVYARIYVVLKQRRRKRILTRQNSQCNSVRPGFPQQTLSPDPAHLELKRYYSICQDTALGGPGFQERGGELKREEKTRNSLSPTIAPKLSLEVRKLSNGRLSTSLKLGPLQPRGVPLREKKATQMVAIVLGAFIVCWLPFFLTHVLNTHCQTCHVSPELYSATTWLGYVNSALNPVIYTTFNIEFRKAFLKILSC

D(2) dopamine receptor [4] = biological target: T2, D(2) dopamine receptor; assay: Displacement of [3H]Spiperone from human dopamine D2 long receptor expressed in CHO cells; type: cell-based
D(1A) dopamine receptor = D(1A) dopamine receptor (Sus scrofa, UniProt P50130); assay: Displacement of [3H]SCH23390 from dopamine D1 receptor in pig striatal membranes; type: cell membranes, Striatum, Membrane
Chain of D(1A) dopamine receptor (P50130 whole entry): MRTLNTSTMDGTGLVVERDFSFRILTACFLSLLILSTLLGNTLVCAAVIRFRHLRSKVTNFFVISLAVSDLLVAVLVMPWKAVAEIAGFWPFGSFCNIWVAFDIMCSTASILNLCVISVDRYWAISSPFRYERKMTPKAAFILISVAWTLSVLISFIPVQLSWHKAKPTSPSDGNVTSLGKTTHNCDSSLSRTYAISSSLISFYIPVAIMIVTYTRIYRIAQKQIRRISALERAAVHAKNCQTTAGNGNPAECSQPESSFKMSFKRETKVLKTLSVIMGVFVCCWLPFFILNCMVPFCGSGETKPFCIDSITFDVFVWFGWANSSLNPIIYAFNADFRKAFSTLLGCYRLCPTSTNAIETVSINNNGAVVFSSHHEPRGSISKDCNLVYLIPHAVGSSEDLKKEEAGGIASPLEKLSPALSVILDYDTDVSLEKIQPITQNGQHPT

[5] = biological target: 5-hydroxytryptamine receptor 2A (Sus scrofa, UniProt P50129); assay: Displacement of [3H]Ketanserin from 5-HT2 receptor in pig cortex membranes; type: cell membranes
Chain of 5-hydroxytryptamine receptor 2A (P50129 whole entry): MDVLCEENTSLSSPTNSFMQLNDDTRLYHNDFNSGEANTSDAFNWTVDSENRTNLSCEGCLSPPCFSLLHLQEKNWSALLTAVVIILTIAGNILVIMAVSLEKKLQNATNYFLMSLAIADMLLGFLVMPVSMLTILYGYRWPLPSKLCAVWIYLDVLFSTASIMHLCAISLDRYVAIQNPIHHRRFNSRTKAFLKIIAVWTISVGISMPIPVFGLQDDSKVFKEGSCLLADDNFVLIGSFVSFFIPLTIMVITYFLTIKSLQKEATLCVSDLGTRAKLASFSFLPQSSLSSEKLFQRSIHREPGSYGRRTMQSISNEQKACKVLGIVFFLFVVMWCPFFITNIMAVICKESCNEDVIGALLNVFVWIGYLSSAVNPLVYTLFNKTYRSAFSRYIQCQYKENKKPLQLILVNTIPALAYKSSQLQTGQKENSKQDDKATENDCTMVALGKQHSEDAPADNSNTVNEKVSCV

Homo sapiens [6] = species: Homo sapiens; assay: Selectivity ratio of Ki for wild type human dopamine D3 receptor to Ki for human dopamine D3 receptor F6.52W mutant
Homo sapiens [7] = species: Homo sapiens; assay: Selectivity ratio of Ki for wild type human dopamine D3 receptor to Ki for human dopamine D3 receptor V2.61F mutant
D(3) dopamine receptor [8] = biological target: T3, D(3) dopamine receptor; assay: Agonist activity at human dopamine D3 receptor expressed in dhfr deficient CHO cells assessed as [3H]thymidine incorporation; type: functional, cell-based

Compound	Ki [1] [nM]	Ki (D(4) dopamine receptor) [nM]	Ki (D(2) dopamine receptor [2]) [nM]	Ki (D(3) dopamine receptor [3]) [nM]	Ki (D(2) dopamine receptor [4]) [nM]	Ki (D(1A) dopamine receptor) [nM]	Ki [5] [nM]	Ratio Ki (Homo sapiens [6])	Ratio Ki (Homo sapiens [7])	Activity (D(3) dopamine receptor [8])
O=C(CCCN1CCN(c2cc3ccc2CCc2ccc(cc2)CC3)CC1)c1ccc(F)cc1	71	120	22	9.9	19	590	450	–	–	–
O=C(CCCN1CCC(O)(c2cc3ccc2CCc2ccc(cc2)CC3)CC1)c1cc2ccc1CCc1ccc(cc1)CC2	2800	30	–	38	–	4900	1200	–	–	–
O=C(CCCN1CCN(c2ccc(Cl)cc2)CC1)c1ccc(F)cc1	13	7.6	61	–	63	340	440	–	–	–
Cc1ccc(C)c(C(=O)CCCN2CCC(O)(c3ccc(Cl)cc3)CC2)c1	35	61	43	73	15	3800	690	–	–	–
COc1ccccc1N1CCN(CCCCNC(=O)c2cc(C)ccc2C)CC1	14	23	17	4.7	22	2100	1500	–	–	–
O=C(CCCN1CCC(O)(c2ccc(Cl)cc2)CC1)c1cc2ccc1CCc1ccc(cc1)CC2	–	39	–	17	–	9800	2400	–	–	–
COc1ccccc1N1CCN(CCCCNC(=O)c2cc3ccc2CCc2ccc(cc2)CC3)CC1	4.2	11	18	0.49	24	680	2200	–	–	–
O=C(CCCN1CCN(c2ccc(Cl)cc2)CC1)c1cc2ccc1CCc1ccc(cc1)CC2	180	120	440	410	620	5400	1700	–	–	–
Cc1ccc(C)c(N2CCN(CCCC(=O)c3ccc(F)cc3)CC2)c1	3.2	17	16	76	13	210	850	–	–	–
O=C(NCCCCN1CCN(c2cc3ccc2CCc2ccc(cc2)CC3)CC1)c1cc2ccc1CCc1ccc(cc1)CC2	840	170	48	4	32	7800	8200	–	–	–
Cc1ccc(C)c(N2CCN(CCCCNC(=O)c3cc4ccccc4s3)CC2)c1	20	300	65	2.5	84	2400	1500	38	40	–
O=C(CCCN1CCC(O)(c2cc3ccc2CCc2ccc(cc2)CC3)CC1)c1ccc(F)cc1	2.9	0.72	3.6	53	4.8	100	19	–	–	–
COc1ccccc1N1CCN(CCCCNC(=O)c2cc3ccccc3s2)CC1	14	–	–	–	–	–	350	–	–	–
Cc1ccc(C)c(C2(O)CCN(CCCC(=O)c3ccc(F)cc3)CC2)c1	1.3	20	6.5	27	3.4	19	110	–	–	–
Cc1ccc(C)c(C(=O)NCCCCN2CCN(c3cc(C)ccc3C)CC2)c1	29	220	86	28	99	3200	3600	–	–	–
O=C(NCCCCN1CCN(c2cc3ccc2CCc2ccc(cc2)CC3)CC1)c1cc2ccccc2s1	490	880	150	1.6	83	4000	1000	2.4	24	inactive
Cc1ccc(C)c(C(=O)CCCN2CCC(O)(c3cc(C)ccc3C)CC2)c1	11	30	–	280	–	590	1700	–	–	–
O=C(CCCN1CCC(O)(c2ccc(Cl)cc2)CC1)c1ccc(F)cc1 [HALOPERIDOL]	6.8	–	–	–	–	–	–	–	–	–
